Assay [1] relates to L1210 (1565). The experiment in a line: Cytotoxic activity against L-1210 parental cell line. Type of assay: functional, cell-based, Mus musculus.
The nature of assay [2]: Relative resistance value of Adriamycin resistant L-1210/L-1210 parental cell line. The format is functional.
Assay [3] concerns HeLa. The assay can be described thus: Cytotoxic activity against HeLa S3 cells. The following applies: Homo sapiens. Type of assay: functional, cell-based.
The test system of assay [4] is L1210 (1565). The assay can be described thus: Cytotoxic activity against adriamycin (ADR) resistant L-1210 cell line. Type of assay: functional, cell-based, Mus musculus.
Assay [5] concerns L1210 (1565). The experiment in a line: cytotoxic activity against adriamycin (ADR) resistant L-1210 cell line. Type of assay: functional, cell-based, Mus musculus.

Converted amounts (≈) assume the structure as drawn.

On to `COc1cccc2c1C(=O)c1c(O)c3c(c(O)c1C2=O)C[C@@](O)(C(C)=O)C[C@@H]3OC1CC(NC(=O)OCC2=CCC(C)(C)CC2=O)C(O)C(C)O1` (some centres undefined), for which the IC50 in assay [1] is 0.038 nM ml-1; in assay [3], 0.0096 µg/mL (≈ 0.0136 µM); in assay [4], 0.14 nM ml-1. Moreover, in assay [2], the Ratio was 3.7.

In assay [3], `CC1(C)CC=C(CI)C(=O)C1` gave an IC50 of 2.3 µg/mL (≈ 8.71 µM).

Turning to `C/C=C/C(=O)OCC1=CCC(C)(C)CC1=O`, in assay [3], the IC50 was determined as 4.7 µg/mL (≈ 21.1 µM).

`CC(=O)OCC1=CCC(C)(C)CC1=O`: in assay [3], the IC50 was 23.5 µg/mL (≈ 120 µM).

Regarding `COc1cccc2c1C(=O)c1c(O)c3c(c(O)c1C2=O)C[C@@](O)(C(C)=O)C[C@@H]3O[C@H]1C[C@H](N)[C@H](O)[C@H](C)O1.Cl` [DAUNORUBICIN HYDROCHLORIDE], the IC50 stood at 0.016 nM ml-1 in assay [1] and 0.147 nM ml-1 in assay [4]. Further, the Ratio in assay [2] was 9.2.

Regarding `COc1cccc2c1C(=O)c1c(O)c3c(c(O)c1C2=O)C[C@@](O)(C(=O)CO)C[C@@H]3O[C@H]1C[C@H](N)[C@H](O)[C@H](C)O1` [DOXORUBICIN], the IC50 stood at 0.022 nM ml-1 in assay [1] and 0.315 nM ml-1 in assay [5]. Also, in assay [2], the Ratio was 14.1.

For the compound `CC1(C)CC=C(CO)C(=O)C1`, in assay [3], the IC50 was > 100 µg/mL.

Source of the values: ChEMBL document CHEMBL1128855, “Design and synthesis of an antitumor prodrug released by the reaction with sulfhydryl compounds” (Bioorg Med Chem Lett, 1995).
